What was measured:
[1] = Compound was tested for the inhibition of hemagglutinination when incorporated into liposomes (Hemagglutinination inhibition (HAI) assay); no inhibition took place
[2] = organism: Gallus gallus; assay: Compound was tested for its ability to displace a fluorescent ligand from the active site of bromelaine-cleaved hemagglutininin (BHA) at concentrations above 5 mM; no displacement was observed
[3] = Compound was tested for its ability to displace a fluorescent ligand from the active site of bromelaine-cleaved hemagglutininin (BHA); set-up: species or system Gallus gallus

For `CCCCCCCCCCCCCC(=O)NC1C(O)CC(OC)(C(=O)O)OC1[C@H](O)[C@H](O)CO` (stereo partly drawn), which Ki [1] is on record?
Its Ki is > 1000 µM.

With `CCCCCCCC(=O)NC1C(O)CC(OC)(C(=O)O)OC1[C@H](O)[C@H](O)CO` (stereo partly drawn) as the molecule, how does the Binding affinity [2] read?
Its Binding affinity is “no displacement was observed”.

With `COC(=O)C1(OC)CC(O)C(NC(C)=O)C([C@H](O)[C@H](O)CO)O1` (stereo partly drawn) as the molecule, how does the Kd [3] read?
The Kd was 2800 µM.
